Reference: patent US20110251251A1, “POLYMORPH II OF AN ANTIFUNGAL COMPOUND” (FERRER INTERNACIONAL, S.A, priority 2008, published 2011)

Tests used:
Assay type in all cases: physicochemical
[1] = Determination of apparent density and compacted density (Stampf STAV 2003 volumeter); conditions: for Compacted density: weight/final volume after 2500 strokes; for Apparent density: weight/initial volume
Protocol: The determination of apparent and compacted densities was carried out with a Stampf STAV 2003 volumeter equipped with a 100-mL glass volumetric flask.
• (i) The flask was filled with a volume between 50 and 100 mL of test sample. • (ii) The volume occupied before the test (mL) was recorded. • (iii) 2500 strokes were performed with the volumeter. • (iv) The volume occupied after the test (mL) was recorded. • (v) The amount of analyzed sample (g) was weighed.
• (i) Apparent density (g/mL)=weight/initial volume • (ii) Compacted density (g/mL)=weight/final volume

[2] = Stability of polymorph II (humidity, temperature, polymorphic transition)
Protocol: The start of endothermic peak temperature occurred at 437.6° K, but the first recorded weight loss began at 449° K from DTA analysis. Polymorph II placed in a furnace at 423° K started decomposition after 2 hours.

[3] = DTA / thermogravimetric analysis (weight loss)
Protocol: The necessary amounts were carefully weighed for completing ¾ parts of the 70-μl Al2O3 crucible provided with a perforated lid that was hermetically sealed. Then, the crucible was placed into the furnace and the experiment started. The samples were heated from […] at a rate of 5° C./min under a N2 stream, the flow rate being 80 mL/min. Mass loss rate was calculated in relation to baseline by horizontal tangent plot. […] The start of endothermic peak temperature occurred at 437.6° K, but the first recorded weight loss began at 449° K from DTA analysis. Polymorph II placed in a furnace at 423° K started decomposition after 2 hours.

Row | Compacted density ([1]; listed as Polymorph 1) | Compacted density ([1]; listed as polymorph I) | Apparent density ([1]; listed as Polymorph 1) | Apparent density ([1]; listed as polymorph I) | Stability in 1-month test ([2]; 1-month test at ambient temperature or humidity) | Stability after 1 day ([2]; 1 day at 25° C./80 RH) | Transition from II to I ([2]; during 1-month test) | Stability at high temperature compared with polymorph I ([2]; high temperatures (higher than 80° C.)) | Stability against humidity ([2]; humidity) | Time to start of decomposition ([2]; placed in a furnace at 423° K) | Stability at temperature ([2]; temperature below 423° K) | Compacted density [1] | Compacted density ([1]; listed as polymorph II) | Apparent density [1] | Apparent density ([1]; listed as polymorph II) | Temperature at which first recorded weight loss began [3] | Structure (SMILES)
1 | 1.08 g/mL | 1.08 g/mL | 0.78 g/mL | 0.78 g/mL |  |  |  |  |  |  |  |  |  |  |  |  | Clc1ccc([C@H](Cn2ccnc2)OCc2csc3c(Cl)cccc23)c(Cl)c1 [Polymorph I, arasertaconazole mononitrate]
2 |  |  |  |  | remained stable | remained stable | No transition from II to I was observed | more stable at high temperature | stable | 2 h | stable | 0.53 g/mL | 0.53 g/mL | 0.39 g/mL | 0.39 g/mL | 449 ° K | Clc1ccc([C@H](Cn2ccnc2)OCc2csc3c(Cl)cccc23)c(Cl)c1 [Polymorph II, arasertaconazole mononitrate]
